What is called Kd is the constant that tells how readily two partners part at equilibrium.

Drawing on US20240190849A1, “AMINOPYRIMIDINE COMPOUNDS AND METHODS OF THEIR USE” (TYRA BIOSCIENCES, INC., priority 2021, published 2024), this text covers Kd for 21 molecules.

Common to all, as to settings: FGFR binding data
One assay has as its target T1, FGFR1 (Homo sapiens, UniProt P11362).
T1 construct: made in house; host or cells: E. coli derived from BL21, infected with T7 phage
In words: Kinase binding assay (kinase-tagged T7 phage, affinity beads, qPCR readout), FGFR1. The method, then:
(§1) Kinase-tagged T7 phage strains were prepared in an E. coli host derived from the BL21 strain. E. coli were grown to log-phase and infected with T7 phage and incubated with shaking at 32° C. until lysis. The lysates were centrifuged and filtered to remove cell debris. Streptavidin-coated magnetic beads were treated with biotinylated small molecule ligands for 30 minutes at room temperature to generate affinity resins for kinase assays. The liganded beads were blocked with excess biotin and washed with blocking buffer SeaBlock (Pierce), 1% BSA, 0.05% Tween 20, 1 mM DTT to remove unbound ligand and to reduce non-specific binding. Binding reactions were assembled by combining kinases, liganded affinity beads, and test compounds in 1× binding buffer (20% SeaBlock, 0.17×PBS, 0.05% Tween 20, 6 mM DTT).
(§2) Test compounds were prepared as 111× stocks in 100% DMSO. Kds were determined using an 11-point 3-fold compound dilution series with three DMSO control points. All compounds for Kd measurements are distributed by acoustic transfer (non-contact dispensing) in 100% DMSO. The compounds were then diluted directly into the assays such that the final concentration of DMSO was 0.9%. All reactions performed in polypropylene 384-well plate. Each was a final volume of 0.02 ml. The assay plates were incubated at room temperature with shaking for 1 hour and the affinity beads were washed with wash buffer (1×PBS, 0.05% Tween 20). The beads were then re-suspended in elution buffer (1×PBS, 0.05% Tween 20, 0.5 μM non-biotinylated affinity ligand) and incubated at room temperature with shaking for 30 minutes. The kinase concentration in the eluates was measured by qPCR.
(§3) Binding constants were calculated with a standard dose-response curve using the Hill equation: […]
(§4) The Hill Slope was set to −1. Curves were fitted using a non-linear least square fit with the Levenberg-Marquardt algorithm.

A further assay concerns the target T2, FGFR2 (Homo sapiens, UniProt P21802).
T2 construct: made in house; host or cells: E. coli derived from BL21, infected with T7 phage
Description: Kinase binding assay (kinase-tagged T7 phage, affinity beads, qPCR readout), FGFR2. The method, then:
as §1, §2, §3, §4

In the next assay the target is T3, FGFR3 (Homo sapiens, UniProt P22607).
T3 construct: made in house; host or cells: E. coli derived from BL21, infected with T7 phage
In words: Kinase binding assay (kinase-tagged T7 phage, affinity beads, qPCR readout), FGFR3. Here is the method:
as §1, §2, §3, §4
(Real-time PCR tracks product formation cycle by cycle.)

The target of another assay is T4, FGFR3 (V555M) (Homo sapiens, UniProt P22607, V555M).
T4 construct: made in house; host or cells: E. coli derived from BL21, infected with T7 phage
In words: Kinase binding assay (kinase-tagged T7 phage, affinity beads, qPCR readout), FGFR3 (V555M). The method, then:
as §1, §2, §3, §4

T2 sequence (P21802 22-821): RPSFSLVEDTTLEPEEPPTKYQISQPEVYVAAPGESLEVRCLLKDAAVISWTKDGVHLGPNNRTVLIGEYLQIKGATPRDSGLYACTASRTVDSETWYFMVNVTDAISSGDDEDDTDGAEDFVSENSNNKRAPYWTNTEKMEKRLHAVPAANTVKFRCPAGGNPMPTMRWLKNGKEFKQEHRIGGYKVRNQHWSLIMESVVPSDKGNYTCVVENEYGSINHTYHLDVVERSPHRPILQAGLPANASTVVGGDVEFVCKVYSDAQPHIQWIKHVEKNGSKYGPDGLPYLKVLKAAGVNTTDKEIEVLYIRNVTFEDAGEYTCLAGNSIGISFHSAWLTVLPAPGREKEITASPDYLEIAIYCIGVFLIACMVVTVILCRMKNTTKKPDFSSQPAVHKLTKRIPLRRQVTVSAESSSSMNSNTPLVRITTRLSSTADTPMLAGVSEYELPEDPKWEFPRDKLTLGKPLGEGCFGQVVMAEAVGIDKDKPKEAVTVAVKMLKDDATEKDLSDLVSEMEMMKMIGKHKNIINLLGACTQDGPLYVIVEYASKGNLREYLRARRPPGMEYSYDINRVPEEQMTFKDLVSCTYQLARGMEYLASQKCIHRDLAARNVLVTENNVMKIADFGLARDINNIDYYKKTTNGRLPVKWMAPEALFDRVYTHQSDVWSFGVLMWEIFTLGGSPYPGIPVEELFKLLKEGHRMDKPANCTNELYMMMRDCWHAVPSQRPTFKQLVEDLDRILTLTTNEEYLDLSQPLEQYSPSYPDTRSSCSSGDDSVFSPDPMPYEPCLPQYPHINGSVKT
T3 sequence (P22607 23-806): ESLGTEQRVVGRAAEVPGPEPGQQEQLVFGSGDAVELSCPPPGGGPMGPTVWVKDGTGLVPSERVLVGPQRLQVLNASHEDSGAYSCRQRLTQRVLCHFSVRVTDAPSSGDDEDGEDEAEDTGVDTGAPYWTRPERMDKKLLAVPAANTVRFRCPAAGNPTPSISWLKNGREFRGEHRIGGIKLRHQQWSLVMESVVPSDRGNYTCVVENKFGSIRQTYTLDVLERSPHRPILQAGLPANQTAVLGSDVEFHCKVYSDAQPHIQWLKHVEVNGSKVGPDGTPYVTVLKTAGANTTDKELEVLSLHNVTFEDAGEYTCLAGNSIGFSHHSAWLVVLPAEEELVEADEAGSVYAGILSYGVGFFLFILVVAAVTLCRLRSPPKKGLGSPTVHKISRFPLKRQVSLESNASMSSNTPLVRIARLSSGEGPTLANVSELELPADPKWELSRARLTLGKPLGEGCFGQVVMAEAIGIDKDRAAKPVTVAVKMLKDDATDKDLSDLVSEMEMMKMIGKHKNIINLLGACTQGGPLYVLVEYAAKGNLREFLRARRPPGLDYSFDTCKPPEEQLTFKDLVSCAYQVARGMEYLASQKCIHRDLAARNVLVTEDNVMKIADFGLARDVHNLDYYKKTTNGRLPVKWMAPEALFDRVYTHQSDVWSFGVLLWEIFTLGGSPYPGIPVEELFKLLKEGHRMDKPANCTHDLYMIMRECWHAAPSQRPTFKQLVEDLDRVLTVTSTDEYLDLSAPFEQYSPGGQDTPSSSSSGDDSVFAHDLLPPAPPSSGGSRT
T4 sequence (P22607 23-806 V555M): as the sequence (P22607 23-806) above, with V533M counted along it
T1 sequence (P11362 22-822): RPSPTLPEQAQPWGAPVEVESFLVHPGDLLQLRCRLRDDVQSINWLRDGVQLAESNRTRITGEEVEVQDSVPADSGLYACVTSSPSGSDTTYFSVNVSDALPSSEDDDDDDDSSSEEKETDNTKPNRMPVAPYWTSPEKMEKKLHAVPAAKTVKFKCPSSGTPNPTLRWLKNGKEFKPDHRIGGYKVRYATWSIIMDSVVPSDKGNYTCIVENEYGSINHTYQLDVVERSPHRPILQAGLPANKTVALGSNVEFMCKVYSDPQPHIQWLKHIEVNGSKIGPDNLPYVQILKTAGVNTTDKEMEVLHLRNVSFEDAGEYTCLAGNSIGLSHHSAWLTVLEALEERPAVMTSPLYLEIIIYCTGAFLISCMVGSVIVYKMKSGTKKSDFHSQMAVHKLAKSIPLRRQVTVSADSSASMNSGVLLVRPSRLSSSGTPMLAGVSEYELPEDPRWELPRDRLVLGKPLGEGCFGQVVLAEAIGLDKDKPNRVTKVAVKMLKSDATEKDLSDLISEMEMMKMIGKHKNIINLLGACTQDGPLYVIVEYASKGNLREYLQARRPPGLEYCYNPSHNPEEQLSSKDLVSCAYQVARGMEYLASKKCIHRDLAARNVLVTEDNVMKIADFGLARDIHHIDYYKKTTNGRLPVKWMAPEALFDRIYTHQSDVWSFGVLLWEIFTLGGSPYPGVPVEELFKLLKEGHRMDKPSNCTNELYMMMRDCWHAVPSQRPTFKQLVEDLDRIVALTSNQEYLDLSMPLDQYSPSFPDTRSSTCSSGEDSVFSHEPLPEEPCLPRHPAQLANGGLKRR

Turning to `C=CC(=O)Nc1ccc2c(c1)c(C)nn2-c1ccnc(Nc2ccnn2C)n1` [Example 87, N-[3-methyl-1-[2-[(2-methylpyrazol-3-yl)amino]pyrimidin-4-yl]indazol-5-yl]prop-2-enamide], the Kd at FGFR1, on FGFR2, on FGFR3 and at FGFR3 (V555M) was greater than 1000 nM throughout.

Regarding `C=CC(=O)Nc1ccc2c(c1)c(C)cn2-c1nc(Nc2cccc(N3CCN(CCO)CC3)c2)ncc1Cl` [Example 88, N-[1-[5-chloro-2-[3-[4-(2-hydroxyethyl)piperazin-1-yl]anilino]pyrimidin-4-yl]-3-methyl-indol-5-yl]prop-2-enamide], the Kd at FGFR1, on FGFR2, at FGFR3 and at FGFR3 (V555M) was 0.1 to 100 nM throughout.

For `C=CC(=O)Nc1ccc2c(c1)c(C)cn2-c1nc(Nc2ccc(N3CCOCC3)nc2)ncc1Cl` [Example 91, N-[1-[5-chloro-2-[(6-morpholino-3-pyridyl)amino]pyrimidin-4-yl]-3-methyl-indol-5-yl]prop-2-enamide], the Kd at FGFR1, on FGFR2, at FGFR3 and on FGFR3 (V555M) was 0.1 to 100 nM each time.

In the case of `C=CC(=O)Nc1ccc2c(-c3ccnc(Nc4ccn(C)n4)n3)cn(C)c2c1` [Example 92, N-[1-methyl-3-[2-[(1-methylpyrazol-3-yl)amino]pyrimidin-4-yl]indol-6-yl]prop-2-enamide], the dissociation constant (Kd) was 100 to 250 nM at FGFR1, 100 to 250 nM at FGFR2, 0.1 to 100 nM on FGFR3 and 100 to 250 nM at FGFR3 (V555M).

As to `C=CC(=O)Nc1ccc2c(c1)c(C)cn2-c1nc(Nc2ccn(CC)n2)ncc1C` [Example 93, N-[1-[2-[(1-ethylpyrazol-3-yl)amino]-5-methyl-pyrimidin-4-yl]-3-methylindol-5-yl]prop-2-enamide], the Kd at FGFR1, on FGFR2, at FGFR3 and on FGFR3 (V555M) was 0.1 to 100 nM each time.

For the molecule `C=CC(=O)Nc1ccc2c(-c3ccnc(Nc4ccn(CC)n4)n3)cn(C)c2c1` [Example 94, N-[3-[2-[(1-ethylpyrazol-3-yl)amino]pyrimidin-4-yl]-1-methyl-indol-6-yl]prop-2-enamide], the dissociation constant Kd was 100 to 250 nM at FGFR1, 250 to 1000 nM at FGFR2, 0.1 to 100 nM at FGFR3 and 100 to 250 nM at FGFR3 (V555M).

Consider `C=CC(=O)Nc1ccc2c(-c3ccnc(Nc4cnn(CC)c4)n3)cn(C)c2c1` [Example 95, N-[3-[2-[(1-ethylpyrazol-4-yl)amino]pyrimidin-4-yl]-1-methyl-indol-6-yl]prop-2-enamide], for which the dissociation constant Kd at FGFR1, on FGFR2, at FGFR3 and at FGFR3 (V555M) was 0.1 to 100 nM in each case.

For the molecule `C=CC(=O)Nc1ccc2c(-c3ccnc(Nc4cnn(C(C)C)c4)n3)cn(C)c2c1` [Example 96, N-[3-[2-[(1-isopropylpyrazol-4-yl)amino]pyrimidin-4-yl]-1-methyl-indol-6-yl]prop-2-enamide], the Kd at FGFR1, on FGFR2, on FGFR3 and at FGFR3 (V555M) was 0.1 to 100 nM throughout.

For the molecule `C=CC(=O)Nc1cnc2c(c1)c(C)cn2-c1ccnc(Nc2ccn(C)n2)n1` [Example 98, N-[3-methyl-1-[2-[(1-methylpyrazol-3-yl)amino]pyrimidin-4-yl]pyrrolo[2,3-b]pyridin-5-yl]prop-2-enamide], the dissociation constant Kd on FGFR1, at FGFR2, at FGFR3 and at FGFR3 (V555M) was 0.1 to 100 nM each time.

As to `C=CC(=O)Nc1ccc2c(c1)c(C)cn2-c1nc(Nc2ccn(C3CC3)n2)ncc1C` [Example 99, N-[1-[2-[(1-cyclopropylpyrazol-3-yl)amino]-5-methyl-pyrimidin-4-yl]-3-methyl-indol-5-yl]prop-2-enamide], the Kd on FGFR1, at FGFR2, on FGFR3 and on FGFR3 (V555M) was 0.1 to 100 nM in each case.

Take `C=CC(=O)Nc1ccc2c(-c3ccnc(Nc4ccn(CCO)n4)n3)cn(C)c2c1` [Example 101, N-[3-[2-[[1-(2-hydroxyethyl)pyrazol-3-yl]amino]pyrimidin-4-yl]-1-methyl-indol-6-yl]prop-2-enamide]: the dissociation constant (Kd) at FGFR1 was in the range of 100 to 250 nM; on FGFR2 it was 250 to 1000 nM; on FGFR3, 0.1 to 100 nM; at FGFR3 (V555M), 100 to 250 nM.

`C=C(C)C(=O)Nc1ccc2c(c1)c(C)cn2-c1nc(Nc2ccnn2C)ncc1C` [Example 104, 2-methyl-N-[3-methyl-1-[5-methyl-2-[(2-methylpyrazol-3-yl)amino]pyrimidin-4-yl]indol-5-yl]prop-2-enamide]: the Kd at FGFR1, at FGFR2, at FGFR3 and on FGFR3 (V555M) was greater than 1000 nM each time.

`C=CC(=O)Nc1ccc2c(-c3ccnc(Nc4cnn(CC5CC5)c4)n3)cn(C)c2c1` [Example 105, N-[3-[2-[[1-(cyclopropylmethyl)pyrazol-4-yl]amino]pyrimidin-4-yl]-1-methyl-indol-6-yl]prop-2-enamide]: the Kd on FGFR1, on FGFR2, on FGFR3 and at FGFR3 (V555M) was 0.1 to 100 nM in each case.

As to `C#CC(=O)Nc1ccc2c(c1)c(C)cn2-c1nc(Nc2ccnn2C)ncc1C` [Example 108, N-[3-methyl-1-[5-methyl-2-[(2-methylpyrazol-3-yl)amino]pyrimidin-4-yl]indol-5-yl]prop-2-ynamide], the Kd at FGFR1, on FGFR2, at FGFR3 and at FGFR3 (V555M) was 0.1 to 100 nM each time.

For `C=CS(=O)(=O)Nc1ccc2c(c1)c(C)cn2-c1nc(Nc2ccnn2C)ncc1C` [Example 109, N-[3-methyl-1-[5-methyl-2-[(2-methylpyrazol-3-yl)amino]pyrimidin-4-yl]indol-5-yl]ethenesulfonamide], the dissociation constant (Kd) on FGFR1, on FGFR2, on FGFR3 and at FGFR3 (V555M) was 0.1 to 100 nM in each case.

Regarding `C=C(F)C(=O)Nc1ccc2c(c1)c(C)cn2-c1nc(Nc2ccnn2C)ncc1C` [Example 110, 2-fluoro-N-[3-methyl-1-[5-methyl-2-[(2-methylpyrazol-3-yl)amino]pyrimidin-4-yl]indol-5-yl]prop-2-enamide], the equilibrium dissociation constant (Kd) was greater than 1000 nM at FGFR1, greater than 1000 nM on FGFR2, greater than 1000 nM on FGFR3 and 250 to 1000 nM at FGFR3 (V555M).

For the molecule `C=CC(=O)Nc1ccc2c(-c3ccnc(Nc4cc(C)[nH]n4)n3)cn(C)c2c1` [Example 111, N-[1-methyl-3-[2-[(5-methyl-1H-pyrazol-3-yl)amino]pyrimidin-4-yl]indol-6-yl]prop-2-enamide], the equilibrium dissociation constant (Kd) at FGFR1, at FGFR2, at FGFR3 and on FGFR3 (V555M) was greater than 1000 nM each time.

As for `C=CC(=O)Nc1ccc2c(-c3ccnc(Nc4ccn(C5CC5)n4)n3)cn(C)c2c1` [Example 112, N-[3-[2-[(1-cyclopropylpyrazol-3-yl)amino]pyrimidin-4-yl]-1-methyl-indol-6-yl]prop-2-enamide], the Kd on FGFR1 fell in the range of 100 to 250 nM; on FGFR2, 100 to 250 nM; at FGFR3 it was 0.1 to 100 nM; on FGFR3 (V555M) it was 0.1 to 100 nM.

In the case of `C=CC(=O)Nc1cnc2c(c1)c(C)cn2-c1nc(Nc2ccn(C3COC3)n2)ncc1C` [Example 113, N-[3-methyl-1-[5-methyl-2-[[1-(oxetan-3-yl)pyrazol-3-yl]amino]-pyrimidin-4-yl]pyrrolo[2,3-b]pyridin-5-yl]prop-2-enamide], the dissociation constant Kd at FGFR1, on FGFR2, at FGFR3 and at FGFR3 (V555M) was 0.1 to 100 nM each time.

Regarding `C=CC(=O)Nc1cnc2c(c1)c(C)cn2-c1nc(Nc2ccn(CC)n2)ncc1C` [Example 114, N-[1-[2-[(1-ethylpyrazol-3-yl)amino]-5-methyl-pyrimidin-4-yl]-3-methyl-pyrrolo[2,3-b]pyridin-5-yl]prop-2-enamide], the Kd on FGFR1, at FGFR2, on FGFR3 and on FGFR3 (V555M) was 0.1 to 100 nM each time.

For the molecule `CCn1ccc(Nc2ncc(C)c(-n3cc(C)c4cc(NC(=O)/C=C/CN(C)C)cnc43)n2)n1` [Example 115, (E)-4-(dimethylamino)-N-[1-[2-[(1-ethylpyrazol-3-yl)amino]-5-methyl-pyrimidin-4-yl]-3-methyl-pyrrolo[2,3-b]pyridin-5-yl]but-2-enamide], the dissociation constant (Kd) on FGFR1 lay within 100 to 250 nM; on FGFR2, 100 to 250 nM; on FGFR3 it was 0.1 to 100 nM; on FGFR3 (V555M), 0.1 to 100 nM.
